According to patent US12497614B2, “Compositions and methods for editing beta-globin for treatment of hemaglobinopathies” (Vertex Pharmaceuticals Incorporated, priority 2020, dated 2025):

Legend:
[1] = test system: HBB gene locus and mRNA transcribed from HBB in CD34+ HSPCs; assay: Editing efficiency in genomic DNA and in HBB mRNA (Example 5); format: cell-based, human; conditions: genomic DNA, 48 hours post electroporation; 1 μM or 3 μM
Description: At 48 hours post electroporation genomic DNA was isolated from the edited cells and HDR to introduce the sickle mutation and INDEL frequencies were evaluated using next gene sequencing and computational analysis. On day 10 of differentiation, incorporation of the SCD mutation and frequency of INDELs present in mRNA transcribed from the HBB gene locus of edited cells was determined using RNA amplicon sequencing.

NBSGW mice = assay: Engraftment and persistence of gene-editing after in vivo administration of CD34+ HSPCs edited with T107 RNP, AAV.310 and Compound 984 (Example 14); parameters: species or system mouse; conditions: 16 weeks; T107 RNP+AAV.310 in the presence of Compound 984
Description: (§1) The cells were electroporated and immediately plated in medium only or medium containing Compound 984 at 3 μM. […] Genomic DNA was harvested from edited cells and used to evaluate HDR efficiency by […] as described in Example 1.
(§2) Following two days of in vitro culture, HSPCs were administered by intravenous injection to NBSGW mice at a dose of 0.5×10^6 cells per mouse. Recipient mice were treated with sublethal irradiation (100 cGy) at 1 day prior to administration of HSPCs. […] In total three independent replicates of the study were performed.
(§3) Bone marrow and peripheral blood was extracted at 16 weeks following HSPC administration and evaluated for presence of human hematopoietic cells using flow cytometry as described in Example 2. The percent chimerism (percentage of human CD45+ cells relative total cells expressing human CD45 or mouse CD45) in mouse bone marrow and peripheral blood is respectively shown in FIGS. 14A-14B.
(§4) Additionally, the lineage of human CD45+ cells was determined using markers for human B cells, T cells, myeloid cells, and HSPCs as described in Example 2.
(§5) The long term persistence of edits in the HBB gene present in HSPCs administered to each mouse cohorts was evaluated in genomic DNA extracted from bone marrow collected at 16 weeks. The frequency of donor template-encoded gene-edits in the HBB gene incorporated by HDR was quantified by NGS and is shown in FIG. 14D. […]

[2] = as above; parameters: species or system mouse; conditions: T107 RNP+AAV.310 in the presence of Compound 984 (3 μM)
Description: as §1, §2, §3, §4, §5

CD34+ HSPCs = assay: Globin and hemoglobin analysis by HPLC on day 18 of differentiation (Example 5); format: cell-based, human; conditions: T107 RNP+AAV.310 alone or combined with the inhibitor
Description: Following editing, cells were differentiated to erythrocytes.
Additionally, on day 18 post-editing, expression of globin monomers was assessed in differentiated cells by HPLC as described in Example 3. […] Accordingly, the editing was sufficient to both introduce the SCD mutation in HBB and result in expression of sickle globin.
Furthermore, production of hemoglobin tetramers was also evaluated by HPLC. The analysis included quantification of HbS tetramer containing sickle-globin (α2β(E6V)2), HbF tetramer (α2γ2), HbA (α2β2), and HbA2 (α2δ2) produced by edited cells. […] Thus, the editing was also sufficient to alter hemoglobin output following in vitro differentiation.

[3] = test system: human HBB gene locus in CD34+ HSPCs; assay: In vitro editing of HBB in CD34+ HSPCs with RNP and AAV donor template; HDR and INDELs by NGS (Example 1); format: cell-based; conditions: T107 RNP+AAV.320 with i53 (1 μg mRNA)
Description: Gene-editing of HBB was evaluated in CD34+ HSPCs. […] HSPCs were maintained in culture media containing IL-3 and were incubated at 37° C. under atmospheric conditions containing 5% carbon dioxide and 4% oxygen. […] To perform gene-editing, the cells were electroporated with RNP. Specifically, 1×10^6 cells were electroporated using the Maxcyte HSC-3 program with RNP containing 20 μg SpCas9 and 20 μg sgRNA (T107 or R02). AAV donor template was administered to cells prior to electroporation. Specifically, the cells were incubated with AAV (AAV.320 or AAV.323 respectively) at a dose of 10,000 MOI for one hour prior to electroporation.
Given efficiency of HDR repair is poor due to competition with other repair pathways (e.g., the NHEJ pathway), particularly in non-dividing or slowly dividing cells such as HSPCs, editing was also evaluated following treatment with molecules that inhibit targets in the NHEJ pathway, including 53BP1 and DNA-PK. […]
To evaluate HDR editing efficiency, genomic DNA was harvested from treated cells, and the frequency of the HBB allele encoding the expected gene edit (i.e., GAA encoding glutamate at position 6 downstream the HBB start codon (“E6”) for cells transduced with AAV.323 and silent mutations for cells transduced with AAV.320) was evaluated using a PCR amplification-based assay followed by next-generating sequencing (NGS). […]

HBB locus in CD34+ HSPCs = assay: In vitro editing of HBB in CD34+ HSPCs with T223 RNP and AAV.321 (Example 9); format: cell-based, human; conditions: T223 RNP+AAV.321-edited cells treated with i53
Description: Gene-editing of HBB was evaluated using CD34+ HSPCs that were derived and maintained in culture as described in Example 1. HSPCs were subjected to gene-editing following two days of culture. To perform gene-editing, the cells were electroporated with RNP. Specifically, 5×10^6 cells were electroporated using the Maxcyte Buffer/HSC-3 program with RNP containing 20 μg SpCas9 and 20 μg sgRNA (T223 or R02). Cells were transfected with corresponding AAV donor template at a dose of 10,000 MOI (AAV.321 or AAV.323 respectively). The effect of 53BP1 inhibition and DNA-PK inhibitions on editing with RNP+AAV was also evaluated by treating cells with […] or 1 μg i53 mRNA+1 μM Nu7441.
The cells were cultured for two days following electroporation and prior to evaluation of editing efficiency. To evaluate editing efficiency, genomic DNA was harvested from edited cells, and frequency of HDR and frequency of INDELs at the predicted gRNA cut site was evaluated as described in Example 1.

| Compound | frequency of INDELs at the T107 cut site compared to cells edited with T107 RNP+AAV.310 only [1] | level of HDR repair compared to cells edited with T107 RNP+AAV.310 only [1] | frequency of gene-edits in mouse bone marrow vs CD34+ HSPCs prior to transplantation (NBSGW mice) | frequency of gene-edits (HDR) in CD34+ HSPCs prior to transplantation [2] | HbA production compared to control cells (CD34+ HSPCs) | HbS production compared to control cells (CD34+ HSPCs) | expression of sickle-globin compared to control cells (CD34+ HSPCs) | HDR efficiency (donor-template-encoded gene-edit in HBB) [3] | frequency of INDELs at the T223 cut site (HBB locus in CD34+ HSPCs) | frequency of genomic DNA incorporating the E6V gene-edit (HBB locus in CD34+ HSPCs) |
| --- | --- | --- | --- | --- | --- | --- | --- | --- | --- | --- |
| [2H]c1nc(C)nc([2H])c1-c1cc(NC[C@@H](C)c2cccc3c(C(=O)NC)ccnc23)ncn1 [Compound 984] | decreased | increased | comparable | approximately 45% | decreased | increased | increased | – | – | – |
| i53: polypeptide inhibitor of 53BP1 (SEQ ID NO: 11), introduced as an mRNA-encoded protein (ORF SEQ ID NO: 10) | – | – | – | – | decreased | increased | increased | approximately 25% | reduced | improved |
